# According to US9538774B2, “Method of feeding livestock to improve carcass characteristics” (Value-Added Science & Technology, LLC., priority 2012, dated 2017):
# “Also recorded” adds a separate entry of the source.
# Key:
# swine = conditions: cited from earlier work
# [1] = tested on: commercial finishing pigs; assay: Example 2 feeding study: CPFA with and without ractopamine in a 40% DDGS diet; type: in vivo
# Procedure: A second study was conducted to evaluate the effects of supplementation of CPFA, with and without ractopamine, in a diet containing a high level (40%) of DDGS, on growth performance, carcass characteristics, meat and fat quality in commercial finishing pigs. The experimental diets over a six-week feeding period were a control diet without CPFA and a diet containing 0.0375% CPFA for six weeks; then for the last three weeks a diet was fed that included ractopamine at 4.5 grams per ton for each of the control and CPFA diets. (See FIG. 4). CPFA was added to replace choice white grease in the control diet. As discussed below, no treatment effects on growth performance were observed nor for HCW, dressing percentage or loin muscle, ultimate pH, color or marbling.
# Pig body weight (BW) on a pen basis was measured initially and at the end of weeks 3 and 6 to calculate average daily gain (ADG). On each weigh day, feed disappearance was measured to calculate average daily feed intake (ADFI) of pigs on pen basis. Pen ADG and ADFI were, in turn, used to calculate feed conversion ratio (F:G).
# Pigs were all harvested on the same day and also weighed individually one day before harvest to obtain a final live BW. HCW was measured on carcasses immediately after harvest. Live BW and HCW of pigs were used to calculate dressing percentage using the following equation: dressing %=(HCW/live BW)×100. Backfat (BF) and loin depth (LD) were measured between the 3rd and 4th rib on each carcass using Fat-O-Meater (Generation II). Percentage of fat-free carcass lean was calculated by Fat-O-Meater using the values of backfat depth and loin depth.
# One barrow and one gilt from each pen weighing closest to the mean BW of their pen were selected for evaluation of meat and belly fat quality. Twenty-four hours after carcasses were chilled at 4° C., pH of loin muscle (LM) was measured at the 10th rib using a pH meter. The pH meter was calibrated at the temperature of the LM with pH 4 and 7 buffers. After pH measurement, carcasses were fabricated. Loin muscle samples at the 10th rib were collected for evaluation of meat quality.
# Each LM sample was separated into two equal halves, and vacuum-packaged and frozen at −20° C. until analysis. One section of LM sample was measured for Minolta color (L*: lightness; a*: redness; b*: yellowness), loin purge, chop purge, and Instron force (a measurement correlated with tenderness and chewiness). Japanese color score (1=extremely pale to 6=extremely dark; NPPC, 2000) and marbling score (1=1% intramuscular fat to 10=10% intramuscular fat; NPPC, 2000) were also determined by trained panelists.
# The other section of the LM sample was used for sensory evaluation. Sensory assessment was performed according to the procedure described by the American Meat Science Association (1995). Samples of LM were thawed at 4° C. overnight and cut into chops approximately 1 inch thick. The chops were weighed before and immediately after cooking to determine cooking loss. After cooking, trained panelists evaluated chops for juiciness, tenderness, chewiness, flavor and off-flavor using a 10-point scale (1=extremely dry, tough, not chewy, none, or none, to 10=extremely juicy, tender, chewy, intense, or intense, respectively). […]
# To determine the CPFA residue in carcass fat, each of 6 (3 barrows, 3 gilts) belly fat samples from the third section were randomly selected in control and experimental treatments. Samples were sent for analysis of individual CPFA using HPLC according to the method described by Wood (1986).
# All data were analyzed using the MIXED procedure of SAS Inst. Inc. (Cary, N.C.). Pen was used as the experimental unit for all responses. The statistical model included the fixed effects of CPFA, ractopamine, CPFA×ractopamine interactions, and random effect of block. Live BW before harvest and sex were used as the covariates in analysis of carcass characteristics, meat and fat quality, if the effects of these covariates were significant (P<0.05). […]
# [2] = 10 or 20 ppm for 25 to 41 days pre-slaughter (Carr et. al., 2005)
# [3] = 10 ppm for 28 days (Stoller et. al., 2003)
# [4] = 10 ppm for 35 days prior to slaughter (Aalhus, et. al., 1990)
# [5] = 40% DDGS diet, CPFA 0.0375% six weeks, ractopamine 4.5 grams per ton last three weeks
# [6] = loin muscle, ractopamine 4.5 grams/ton
# [7] = ractopamine 4.5 grams per ton last three weeks
# [8] = sensory panel, 10-point scale, each additive alone
# [9] = sensory panel, ractopamine 4.5 grams/ton
smiles,measurement,setting,value
CC(CCc1ccc(O)cc1)NCC(O)c1ccc(O)cc1 (centres unmarked) [ractopamine],color scores,swine; [2],poorer
same,flavor scores,swine; [2],reduced
same,tenderness,swine; [2],reduced
same,Instron force of loin muscle,swine; [3],increased
same,chewiness score,swine; [3],increased
same,color score,swine; [3],reduced
same,tenderness score,swine; [3],reduced
same,hardness of fat samples taken from the loin,swine; [4],reduced
same,sheer force of loin muscle,swine; [4],increased
same,average daily feed intake (ADFI),[1]; [5],affected
same,average daily gain (ADG),[1]; [5],affected; also recorded: statistically significant positive effects
same,feed conversion ratio (F:G),[1]; [5],statistically significant positive effects
same,weight at harvest (final BW),[1]; [5],affected; also recorded: statistically significant positive effects
same,Instron force of LM samples,"[1]; loin muscle, CPFA 0.0375% six weeks, ractopamine 4.5 grams/ton",did affect; also recorded: increase
same,lightness of LM,[1]; [6],did affect
same,redness (Minolta a*) of LM,[1]; [6],did affect; also recorded: reductions
same,yellowness (Minolta b*) of LM,[1]; [6],did affect; also recorded: reductions
same,back fat,[1]; [7],reduction
same,increase of the measure of carcass lean,[1]; [7],2%
same,loin depth,[1]; [7],increase
same,carcass lean %,"[1]; ractopamine 4.5 grams/ton, effect in words",statistically significant positive effects
same,juiciness score,[1]; [8],Neither CPFA nor ractopamine alone affected
same,off-flavor score,[1]; [8],Neither CPFA nor ractopamine alone affected
same,chewiness,[1]; [9],increased
same,flavor score,[1]; [9],reduction
same,tenderness,[1]; [9],reduced
